This note sets out measurements from US8992960B2, “Multifunctional silica-based compositions and gels, methods of making them, and methods of using them” (University of Florida Research Foundation, Inc., priority 2010, dated 2015).

The nature of this data set: Reactivity of DMDS towards Cu(II) ions (odor over time). It counts as physicochemical. The following applies: in CuSiNG; preliminary results, characteristic odor over time. As for the experimental part: Unlike SiNG, the physico-chemical environment of DMDS in CuSiNG is expected to be somewhat different due to presence of Cu (II) ions. […] However, the DMDS electron-rich sulfur atom has the ability to weakly interact with electron-deficient Cu(II) ion. This could further facilitate adsorption of DMDS into CuSiNG. Thorough FT-IR studies are performed to understand the nature of intermolecular interactions that exist between DMDS and SiNG. In addition, thermogravimetric analysis (TGA), calorimetry and QCM sensing studies to obtain DMDS loading/release characteristics (isotherms) against CuSiNG and SiNG materials will be used to determine the role of Cu II ions in DMDS loading. A comparative isotherm data analysis along with FT-IR analysis will reveal the effect of Cu in DMDS loading/release process.

As to `CSSC` [DMDS, dimethyl disulfide], the “reactivity to Cu(II) ions” value is recorded as “non-reactive to Cu(II) ions”.
